Laboratory results taken from patent publication US10947271B2, “Antibacterial agents” (THE UNIVERSITY OF QUEENSLAND, priority 2014, dated 2021).

Key:
[1] = Stability of compounds in human plasma
Method: Briefly test compounds (20 μM) were prepared from a 1 mM stock solution. The human plasma sample (200 μl) was diluted with 160 μl phosphate-buffer saline (PBS, pH 7.4) to a concentration of 50% v/v before use. Solutions were then vortexed and placed on a 37° C. shaker and shaken gently for 10 minutes. 40 μl of the test compounds were then added to the plasma sample and vortexed. For the reaction time t=0 hour, 50 μl of sample was immediately transferred into an eppendorf tube and quenched with 150 μl cold acetonitrile. The remaining plasma solution was incubated and shaken at 37° C. Other samples were collected at time points of 0, 1, 3, 6 and 24 hours whereby 50 μl aliquots were removed and quenched with 150 μl cold acetonitrile. All samples were placed in a 4° C. fridge for 10 minutes then centrifuged at 3000 rpm for 15 minutes. The supernatant (100 μl) was transferred to a glass vial insert for LCMS analysis. The percentage of test compounds remaining at the individual time points relative to sample at time point 0 hour were reported.
Plasma: Human Plasma (Pooled Normal Human Plasma Heparin Anticoagulant 50 mL (IPLA-2 N-04 lot IR09-1001, originally from Innovative Research and imported by BioCore).
All compounds in 100% water (40 μL in 400 μL assay volume equivalent […])
Compounds: 40 μL of the vancomycin derivative solution was added to 160 μL of PBS (pH 7.4) respectively in an Eppendorf tube. 600 μL of cold acetonitrile was added, the tube vortexed and transferred to a glass vial for LC-MS analysis.
Eucatropine: 200 μL of plasma and 190 μL of buffer were vortexed, shaken at 37° C. for 10 minutes. 10 μL of eucatropine solution was then added and the tube vortexed. A 50 μL aliquot was immediately transferred to an Eppendorf tube, 150 μL of cold acetonitrile added and the tube transferred to a 4° C. fridge for 10 minutes. The remaining plasma solution was then transferred to the incubator and shaken at 37° C. The tube was retrieved from the fridge, centrifuged at 3000 rpm for 15 min and 100 μL of supernatant transferred to a glass vial insert for LC-MS analysis. 50 μL aliquots were processed as above at 1, […], 3, 6 and 24 hours and 5 μL was injected into triple quad MS system for analysis. Vancomycin derivatives: 200 μL of plasma and 160 μL of buffer were vortexed and shaken at 37° C. for 10 minutes. 40 μL of compound was then added and the sample was processed as above.

[2] = system: Streptococcus pneumoniae MDR ATCC 700677; experiment: MIC assay, S. pneumoniae MDR ATCC 700677; format: cell-based; settings: 24 h incubation, visual reading
Summary of the method: (§1)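 Overnight MHB cultures at 37° C were diluted 40-fold and grown 2-3 hrs to mid-log, then added at 5×10e5 CFU/mL to twofold compound dilutions (8 to 0.003 μg/ml). Plates were incubated 24 h at 37° C and MIC scored by eye.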

[3] = system: Staphylococcus aureus MRSA ATCC 43300; experiment: MIC assay, S. aureus MRSA ATCC 43300; format: cell-based; settings: 24 h incubation, visual reading
Summary of the method: as §1

[4] = system: Enterococcus faecium MDR Van A ATCC 51559; experiment: MIC assay, E. faecium MDR Van A ATCC 51559; format: cell-based; settings: 24 h incubation, visual reading
Summary of the method: as §1

[5] = 0 h (reference time point), 50% human plasma/PBS pH 7.4, 37° C.
[6] = 1 h, 50% human plasma/PBS pH 7.4, 37° C.
[7] = 3 h, 50% human plasma/PBS pH 7.4, 37° C.
[8] = 6 h, 50% human plasma/PBS pH 7.4, 37° C.
[9] = 24 h, 50% human plasma/PBS pH 7.4, 37° C.

Compound | % compound remaining after incubation in 50% human plasma [1, 5] [%] | % compound remaining after incubation in 50% human plasma [1, 6] [%] | % compound remaining after incubation in 50% human plasma [1, 7] [%] | % compound remaining after incubation in 50% human plasma [1, 8] [%] | % compound remaining after incubation in 50% human plasma [1, 9] [%] | Minimum Inhibitory Concentration (MIC) S. pneumoniae ATCC 700677 [2] | Minimum Inhibitory Concentration (MIC) Staph. aureus ATCC43300 [3] | Minimum Inhibitory Concentration (MIC) E. faecium ATCC51559 [4] | % compound remaining after incubation in 50% human plasma ([1]; human, plasma, 0 h, pH 7.4) [%] | % compound remaining after incubation in 50% human plasma ([1]; human, plasma, 1 h, pH 7.4) [%] | % compound remaining after incubation in 50% human plasma ([1]; human, plasma, 3 h, pH 7.4) [%] | % compound remaining after incubation in 50% human plasma ([1]; human, plasma, 6 h, pH 7.4) [%] | % compound remaining after incubation in 50% human plasma ([1]; human, plasma, 24 h, pH 7.4) [%]
CCCCCCCCCCCCCC(=O)N[C@@H](CCCCN)C(=O)N[C@@H](CCCCN)C(=O)NCC(=O)NCCNC(=O)[C@H]1NC(=O)[C@H]2NC(=O)[C@H](NC(=O)[C@@H]3NC(=O)[C@H](CC(N)=O)NC(=O)[C@H](NC(=O)[C@@H](CC(C)C)NC)[C@H](O)c4ccc(c(Cl)c4)Oc4cc3cc(c4O[C@@H]3O[C@H](CO)[C@@H](O)[C@H](O)[C@H]3O[C@H]3C[C@](C)(N)[C@H](O)[C@H](C)O3)Oc3ccc(cc3Cl)[C@H]2O)c2ccc(O)c(c2)-c2c(O)cc(O)cc21 [MCC_000226, nC13CO-KKG-NHC2NH-Vanc] | 100 | 98 | 137 | 85 | 87 | xxxxx (xxxxx = <0.01) | xxxxx (xxxxx = <0.01) | xxx (xxx = 0.1-<1) |  |  |  |  | 
CCCCCCCCCCCCCC(=O)N[C@@H](CCCCN)C(=O)N[C@@H](CCCCN)C(=O)N[C@@H](CCCCN)C(=O)N[C@@H](CCCCNC(=O)[C@H]1NC(=O)[C@H]2NC(=O)[C@H](NC(=O)[C@@H]3NC(=O)[C@H](CC(N)=O)NC(=O)[C@H](NC(=O)[C@@H](CC(C)C)NC)[C@H](O)c4ccc(c(Cl)c4)Oc4cc3cc(c4O[C@@H]3O[C@H](CO)[C@@H](O)[C@H](O)[C@H]3O[C@H]3C[C@](C)(N)[C@H](O)[C@H](C)O3)Oc3ccc(cc3Cl)[C@H]2O)c2ccc(O)c(c2)-c2c(O)cc(O)cc21)C(=O)O [MCC_000223, nC13CO-KKK-K(Vanc)-OH] | 100 | 174 | 164 | 170 | 139 | xxxxx (xxxxx = <0.01) | xxxxx (xxxxx = <0.01) | xxx (xxx = 0.1-<1) |  |  |  |  | 
CCCCCCCCCCCCCC(=O)N[C@H](CCCCN)C(=O)N[C@H](CCCCN)C(=O)NCC(=O)NCCNC(=O)[C@H]1NC(=O)[C@H]2NC(=O)[C@H](NC(=O)[C@@H]3NC(=O)[C@H](CC(N)=O)NC(=O)[C@H](NC(=O)[C@@H](CC(C)C)NC)[C@H](O)c4ccc(c(Cl)c4)Oc4cc3cc(c4O[C@@H]3O[C@H](CO)[C@@H](O)[C@H](O)[C@H]3O[C@H]3C[C@](C)(N)[C@H](O)[C@H](C)O3)Oc3ccc(cc3Cl)[C@H]2O)c2ccc(O)c(c2)-c2c(O)cc(O)cc21 [MCC_000227, nC13CO-kkG-NHC2NH-Vanc] | 100 | 102 | 102 | 93 | 94 | xxxxx (xxxxx = <0.01) | xxxxx (xxxxx = <0.01) | xx (xx = 1-4) |  |  |  |  | 
CCCCCCCCCCC(=O)NCC(=O)N[C@@H](CO)C(=O)N[C@@H](CCCCN)C(=O)N[C@@H](CCCCN)C(=O)N[C@@H](CCCCN)C(=O)N[C@@H](CCCCNC(=O)[C@H]1NC(=O)[C@H]2NC(=O)[C@H](NC(=O)[C@@H]3NC(=O)[C@H](CC(N)=O)NC(=O)[C@H](NC(=O)[C@@H](CC(C)C)NC)[C@H](O)c4ccc(c(Cl)c4)Oc4cc3cc(c4O[C@@H]3O[C@H](CO)[C@@H](O)[C@H](O)[C@H]3O[C@H]3C[C@](C)(N)[C@H](O)[C@H](C)O3)Oc3ccc(cc3Cl)[C@H]2O)c2ccc(O)c(c2)-c2c(O)cc(O)cc21)C(=O)O [MCC_000082, nC10CO-GSKKK-K(Vanc)-OH] | 100 | 136 | 252 | 241 | 73 |  |  |  |  |  |  |  | 
CNC(CC(C)C)C(=O)NC1C(=O)NC(CC(N)=O)C(=O)NC2C(=O)NC3C(=O)NC(C(=O)NC(C(=O)NCCCCC(NC(=O)C(CCCCN)NC(=O)C(CCCCN)NC(=O)C(CCCCNC(=O)c4ccc(Oc5ccccc5)cc4)NC(=O)c4ccc(Oc5ccccc5)cc4)C(=O)O)c4cc(O)cc(O)c4-c4cc3ccc4O)C(O)c3ccc(c(Cl)c3)Oc3cc2cc(c3OC2OC(CO)C(O)C(O)C2OC2CC(C)(N)C(O)C(C)O2)Oc2ccc(cc2Cl)C1O (stereo not shown) [MCC_000217, (4-PhO-PhCO)-K(4-PhO-PhCO)-KK-K(Vanc)-OH] | 100 | 107 |  | 103 | 99 | xxxxx (xxxxx = <0.01) | xxxxx (xxxxx = <0.01) | xx (xx = 1-4) |  |  |  |  | 
nC13CO-KKK-C(SS-nEt-NH-Vanc)-OH [MCC_000535, reference compound] |  |  |  |  |  |  |  |  | 100 | 77 | 64 | 51 | 3
CCCCCCCCCCC(=O)N[C@@H](CCCCN)C(=O)N[C@@H](CCCCN)C(=O)N[C@@H](CCCCN)C(=O)N[C@@H](CCCCNC(=O)[C@H]1NC(=O)[C@H]2NC(=O)[C@H](NC(=O)[C@@H]3NC(=O)[C@H](CC(N)=O)NC(=O)[C@H](NC(=O)[C@@H](CC(C)C)NC)[C@H](O)c4ccc(c(Cl)c4)Oc4cc3cc(c4O[C@@H]3O[C@H](CO)[C@@H](O)[C@H](O)[C@H]3O[C@H]3C[C@](C)(N)[C@H](O)[C@H](C)O3)Oc3ccc(cc3Cl)[C@H]2O)c2ccc(O)c(c2)-c2c(O)cc(O)cc21)C(=O)O [MCC_000229, nC10CO-KKK-K(Vanc)-OH] | 100 | 87 | 87 | 83 | 93 | xxx (xxx = 0.1-<1) | xxxx (xxxx = 0.01-<0.1) | xxxx (xxxx = 0.01-<0.1) |  |  |  |  | 
